Results: patent publication US20080255169A1 (priority 2004, published 2008)
Like-named read-outs stand apart in the source and are kept apart here.

Tests used:
[1] = tested on: PC-3 cells; assay: Cell invasion assay: invasion of PC-3 cells through Matrigel; type: cell-based; settings: Homo sapiens, 72 hours
Description: The overexpression regulates cell adhesion and migration to and invasion through the extracellular matrix. By blocking the interaction between extracellular matrix components like collagen and α2β1 it is possible to block cancer cell migration and invasion in vitro. Prostate cancer cells (PC-3) expressing α2β1 endogenously were used to test the in vitro anticancer potential of the inhibitors of the present invention.
Invasion of PC-3 cells (CRL-1435, ATCC) through Matrigel was studied using BD Biocoat invasion inserts (BD Biosciences). Inserts were stored at −20° C. Before the experiments inserts were allowed to adjust to the room temperature. 500 μl of serum free media (Ham's F12K medium, 2 mM L-glutamine, 1.5 g/l sodium bicarbonate) was added into the inserts and allowed to rehydrate at 37° C. in cell incubator for two hours. The remaining media was aspirated. PC-3 cells were detached, pelleted and suspended into serum free media (50 000 cells/500 μl). 300 μl of cell suspension was added into the insert in the absence (control) or presence of the inhibitor according to the pre-sent invention. Inserts were placed on the 24-well plates; each well containing 700 μl of cell culture media with 3% of fetal bovine serum as chemo-attractant. Cells were allowed to invade for 72 hours at 37° C. in cell incubator. Inserts were washed with 700 μl PBS, and fixed with 4% paraformaldehyde for 10 minutes. Paraformaldehyde was aspirated and cells were washed with 700 μl of PBS and inserts were stained by incubation with hematoxylin for 1 minute. The stain was removed by washing the inserts with 700 μl of PBS. Inserts were allowed to dry. Fixed invaded cells were calculated under the microscope. Invasion % was calculated as a comparison to the control.
Cell invasion assay is used as an in vitro cancer metastatis model. […] Some structures inhibit invasion even with submicromolar concentrations. […] In FIG. 2, the dose response of compound 161 in invasion assay is shown. Compound 161 gave the best EC50 value (0.3 μM) in invasion assay. Invasion assay was done with human prostata cancer cell line, PC-3.

[2] = molecular target: α2β1 integrin (Homo sapiens, UniProt P05556+P17301); assay: Cell adhesion assay; type: cell-based; settings: for Emax: concentration not given, read-out: Emax in cell adhesion assay; for EC50: read-out: EC50 in cell adhesion assay
[3] = molecular target: α2β1 integrin (Homo sapiens, UniProt P17301); assay: Cell adhesion assay; type: cell-based
[4] = read-out: EC50 in invasion assay

Sequence of α2β1 integrin (Homo sapiens, UniProt P05556+P17301) (P17301 30-1181): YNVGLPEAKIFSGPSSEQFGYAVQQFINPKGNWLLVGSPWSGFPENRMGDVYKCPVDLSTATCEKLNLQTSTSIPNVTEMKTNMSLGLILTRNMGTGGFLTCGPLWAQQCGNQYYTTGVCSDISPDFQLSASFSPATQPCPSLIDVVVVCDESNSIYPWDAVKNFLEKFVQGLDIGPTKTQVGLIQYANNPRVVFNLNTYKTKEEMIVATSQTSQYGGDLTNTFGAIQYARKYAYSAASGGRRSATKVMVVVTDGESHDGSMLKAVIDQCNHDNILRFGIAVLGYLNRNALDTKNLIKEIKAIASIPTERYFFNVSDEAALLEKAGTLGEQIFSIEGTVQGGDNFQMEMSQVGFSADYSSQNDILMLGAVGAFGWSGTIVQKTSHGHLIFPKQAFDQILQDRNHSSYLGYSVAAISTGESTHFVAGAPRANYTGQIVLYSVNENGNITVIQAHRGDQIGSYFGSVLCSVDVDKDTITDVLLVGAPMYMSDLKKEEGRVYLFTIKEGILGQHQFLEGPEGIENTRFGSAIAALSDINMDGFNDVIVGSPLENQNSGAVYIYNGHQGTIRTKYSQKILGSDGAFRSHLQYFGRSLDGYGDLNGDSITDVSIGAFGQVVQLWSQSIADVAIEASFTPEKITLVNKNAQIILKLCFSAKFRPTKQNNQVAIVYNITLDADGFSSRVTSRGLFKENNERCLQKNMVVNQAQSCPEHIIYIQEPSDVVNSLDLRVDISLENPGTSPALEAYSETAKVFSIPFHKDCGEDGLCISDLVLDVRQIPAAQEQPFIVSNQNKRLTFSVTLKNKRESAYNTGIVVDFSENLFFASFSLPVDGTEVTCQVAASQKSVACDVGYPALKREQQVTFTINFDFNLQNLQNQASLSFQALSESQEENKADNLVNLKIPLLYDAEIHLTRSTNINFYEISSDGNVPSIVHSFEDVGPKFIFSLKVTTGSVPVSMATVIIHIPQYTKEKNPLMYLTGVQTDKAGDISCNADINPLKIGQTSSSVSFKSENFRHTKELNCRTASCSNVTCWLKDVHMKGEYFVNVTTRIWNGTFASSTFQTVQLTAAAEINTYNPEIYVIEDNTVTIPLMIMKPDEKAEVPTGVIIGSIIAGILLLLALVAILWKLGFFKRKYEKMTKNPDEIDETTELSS
Sequence of α2β1 integrin (Homo sapiens, UniProt P05556+P17301) (P05556 21-798 partner): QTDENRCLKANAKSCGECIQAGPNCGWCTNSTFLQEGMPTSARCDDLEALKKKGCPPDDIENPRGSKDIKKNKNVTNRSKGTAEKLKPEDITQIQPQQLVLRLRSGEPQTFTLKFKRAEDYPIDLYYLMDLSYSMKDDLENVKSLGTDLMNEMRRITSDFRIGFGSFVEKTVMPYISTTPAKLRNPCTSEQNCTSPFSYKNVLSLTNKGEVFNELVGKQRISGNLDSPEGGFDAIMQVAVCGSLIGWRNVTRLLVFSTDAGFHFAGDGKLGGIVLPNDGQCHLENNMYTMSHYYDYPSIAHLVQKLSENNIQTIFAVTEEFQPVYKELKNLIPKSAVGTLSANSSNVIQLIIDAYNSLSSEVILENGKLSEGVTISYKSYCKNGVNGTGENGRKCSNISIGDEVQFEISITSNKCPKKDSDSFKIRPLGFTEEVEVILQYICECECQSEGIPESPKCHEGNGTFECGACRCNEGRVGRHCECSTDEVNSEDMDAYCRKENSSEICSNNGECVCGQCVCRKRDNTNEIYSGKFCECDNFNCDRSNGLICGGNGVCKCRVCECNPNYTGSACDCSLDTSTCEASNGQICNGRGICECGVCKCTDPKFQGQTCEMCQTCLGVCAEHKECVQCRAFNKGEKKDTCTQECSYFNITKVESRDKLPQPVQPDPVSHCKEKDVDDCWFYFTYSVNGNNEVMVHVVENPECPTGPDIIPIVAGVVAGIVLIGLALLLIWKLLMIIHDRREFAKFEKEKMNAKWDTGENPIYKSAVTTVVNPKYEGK
Sequence of α2β1 integrin (Homo sapiens, UniProt P17301) (P17301 30-1181): as the sequence (P17301 30-1181) above
Sequence of α2β1 integrin (Homo sapiens, UniProt P17301) (P05556 21-798 partner): as the sequence (P05556 21-798 partner) above

| SMILES | Emax [2] [%] | EC50 [2] [µM] | further results |
| --- | --- | --- | --- |
| Cc1cc(C)nc(Nc2ccc(NS(=O)(=O)c3cccc(Br)c3)cc2)n1 [Compound 183] | 81 | 28 | EC50 [1, 4]: ≤ 1 µM |
| CC(=O)c1ccc(-c2cccc(S(=O)(=O)Nc3ccc(N(C)C)cc3)c2)s1 [Compound 239, 3-(5-acetylthien-2-yl)-N-[4-(dimethylamino)phenyl]benzenesulfonamide] |  | 24 | EC50 [1, 4]: ≤ 1 µM; Emax at 50 µM [2]: 64% |
| CN(C)c1ccc(N(C)S(=O)(=O)c2ccc(Cl)cc2Cl)cc1 [Compound 223, 2,4-dichloro-N-[4-(dimethylamino)phenyl]-N-methyl benzenesulfonamide] | 82 | 13 |  |
| Cc1cc2cc(N(C)S(=O)(=O)c3ccc(Cl)cc3Cl)ccc2n1C [Compound 242, 2,4-dichloro-N-(1,2-dimethyl-1H-indol-5-yl)-N-methyl-benzenesulfonamide] | 70 | 6 | EC50 [1, 4]: ≤ 1 µM |
| Cc1cc2cc(NS(=O)(=O)c3cccc(C(F)(F)F)c3)ccc2[nH]1 [Compound 230] |  | > 30 | Emax at 50 µM [2]: 76% |
| CN(c1ccc2c(c1)c1ccccc1n2C)S(=O)(=O)c1ccc(Cl)cc1Cl [Compound 320] | 45 | 10 |  |
| CN(C)c1ccc(N(C)S(=O)(=O)c2cccc(Br)c2)cc1 [Compound 281] | 78 | 47 | EC50 [1, 4]: ≤ 1 µM |
| Cc1nc2ccc(NS(=O)(=O)c3cccc(Br)c3)cc2s1 [Compound 195] | 60 | 49 |  |
| CSc1nc2ccc(NS(=O)(=O)c3ccc(Cl)cc3Cl)cc2s1 [Compound 132] | 90 | 40 |  |
| Cc1cc2c(n1-c1ccc(NS(=O)(=O)c3ccc(Cl)c(Cl)c3)cc1)CC(C)(C)CC2=O [Compound 269] | 64 | 19 |  |
| CC(C)(C)c1cc2cc(NS(=O)(=O)c3ccc(Cl)cc3)ccc2[nH]1 [Compound 173] |  | 35 | Emax at 40 µM ([2]; at 40 μM): 59% |
| Cc1cc(C)nc(Nc2ccc(NS(=O)(=O)c3ccc(Cl)cc3Cl)cc2)n1 [Compound 182] | 77 | 25 |  |
| Cc1cc(C)nc(N(C)c2ccc(NS(=O)(=O)c3ccc(Cl)cc3Cl)cc2)n1 [Compound 50, 2,4-dichloro-N-{4-[(4,6-dimethylpyrimidin-2-yl)(methyl)amino]phenyl}benzenesulphonamide] | 60 | 17 |  |
| COc1cc(OC)nc(-c2ccc(NS(=O)(=O)c3ccc4ccccc4c3)cc2)n1 [Compound 266] | 70 | 18 |  |
| Cc1cc(C)nc(N(C)c2ccc(N(C)S(=O)(=O)c3ccc(Cl)cc3Cl)cc2)n1 [Compound 302] | 57 | 24 |  |
| O=S(=O)(Nc1ccc2cc[nH]c2c1)c1ccc(Cl)cc1Cl [Compound 161, 2,4-dichloro-N-(1H-indol-6-yl)-benzenesulfonamide] | 82 | 34 | EC50 ([1]; dose response FIG. 2, read-out: EC50 value in invasion assay): 0.3 µM; EC50 [1, 4]: ≤ 1 µM |
| Cc1cc2c(n1-c1ccc(NS(=O)(=O)c3ccc(C(F)(F)F)cc3Cl)cc1)CC(C)(C)CC2=O [Compound 283, 2-chloro-4-trifluoromethyl-N-[4-(2,6,6-trimethyl-4-oxo-4,5,-6,7-tetrahydro-indol-1-yl)-phenyl]-benzenesulfonamide] | 63 | 23 |  |
| Cc1cc2cc(NS(=O)(=O)c3cccc(Br)c3)ccc2[nH]1 [Compound 197, 3-bromo-N-(2-methyl-1H-indol-5-yl)-benzenesulfonamide] | 74 |  |  |
| COc1cc(OC)nc(-c2ccc(NS(=O)(=O)c3ccc(Cl)cc3Cl)cc2)n1 [Compound 164, 2,4-dichloro-N-[4-(4,6-dimethoxy-pyrimidin-2-yl)-phenyl]-benzenesulfonamide] |  | 21 | Emax at 50 µM [2]: 85% |
| COc1cc(OC)nc(-c2ccc(NS(=O)(=O)c3ccc(Cl)c(Cl)c3)cc2)n1 [Compound 255] |  | 17 | Emax at 50 µM [2]: 88% |
| Cc1cc2cc(NS(=O)(=O)c3ccc(Cl)cc3Cl)ccc2[nH]1 [Compound 131, 2,4-dichloro-N-(2-methyl-1H-indol-5-yl)-benzenesulfonamide] | 58 | 25 | EC50 [1, 4]: ≤ 1 µM |
| Cc1[nH]c2ccc(NS(=O)(=O)c3ccc(Cl)cc3Cl)cc2c1C [Compound 210] |  |  | Emax at 50 µM [2]: 80%; EC50 in cell adhesion assay [3]: dd could not be detected |
| Cc1cc(F)ccc1-c1cccc(S(=O)(=O)N(C)c2ccc(N(C)C)cc2)c1 [Compound 321] | 55 | 6.3 |  |

More lines, main results first:

| Emax [2] [%] | EC50 [2] [µM] | SMILES | further results |
| --- | --- | --- | --- |
| 70 | 3 | CN(C)c1ccc(NS(=O)(=O)c2cccc(-c3ccc(F)cc3)c2)cc1 [Compound 119, N-[4-(dimethylamino)phenyl]-4′-fluoro-1,1′-biphenyl-3-sulphonamide] | melting point: 158 to 160 °C |
| 69 | ~30 | Cn1ccc2ccc(NS(=O)(=O)c3cccc(-c4ccc(F)cc4)c3)cc21 [Compound 284, 4′-fluoro-biphenyl-3-sulfonic acid (1-methyl-1H-indol-6-yl)-amide] |  |
| 79 | 33 | Cc1cc(C)n(-c2ccc(NS(=O)(=O)c3cccc(-c4ccc(F)cc4)c3)cc2)n1 [Compound 298] | EC50 [1, 4]: ≤ 1 µM |
| 77 | 20 | COc1ccc(-c2cccc(S(=O)(=O)Nc3ccc(N(C)C)cc3)c2)cc1OC [Compound 142, [4-(3′,4′-dimethoxy-biphenyl-3-sulfonylamino)-phenyl]-dimethylammonium; chloride] |  |
|  | 20 | Cn1ccc2cc(NS(=O)(=O)c3cccc(-c4ccc(F)cc4)c3)ccc21 [Compound 285, 4′-fluoro-biphenyl-3-sulfonic acid (1-methyl-1H-indol-5-yl)-amide] | EC50 [1, 4]: ≤ 1 µM; Emax at 50 µM [2]: 60% |
| 91 | 27 | CN(C)c1ccc(NS(=O)(=O)c2cc(-c3ccc(F)cc3)c(F)cc2F)cc1 [Compound 202] |  |
|  | 24 | CN(C)c1ccc(NS(=O)(=O)c2ccc(-c3ccc(F)cc3)s2)cc1 [Compound 306] | Emax at 50 µM [2]: 67% |
| 79 | 20 | O=S(=O)(Nc1ccc(-n2cnc(Cl)c2Cl)cc1)c1ccc2ccccc2c1 [Compound 171] |  |
|  | 20 | CN(C)c1ccc(NS(=O)(=O)c2cccc(-c3cccc(O)c3)c2)cc1 [Compound 205] | Emax at 50 µM [2]: 84% |
| 87 | 18 | Cc1nc2ccc(NS(=O)(=O)c3cccc(-c4ccc(F)cc4)c3)cc2o1 [Compound 187, 4′-fluoro-biphenyl-3-sulfonic acid (2-methyl-benzooxazol-6-yl)-amide] |  |
|  | 10 | CN(C)c1ccc(NS(=O)(=O)c2cc(-c3ccc(F)cc3)c(Cl)s2)cc1 [Compound 316, 5-chloro-4-(4-fluoro-phenyl)-thiophene-2-sulfonic acid (4-dimethylamino-phenyl)-amide] | Emax at 50 µM [2]: 87% |
|  | 17 | COc1ccc(-c2cnn(-c3ccc(NS(=O)(=O)c4ccc(Cl)cc4)cc3)c2)cc1 [Compound 176] | EC50 [1, 4]: ≤ 1 µM; Emax at 50 µM [2]: 59% |
| 66 | 15 | Cc1cc(F)ccc1-c1cccc(S(=O)(=O)Nc2ccc(N(C)C)cc2)c1 [Compound 222, N-[4-(dimethylamino)phenyl]-4′-fluoro-2′-methyl-1,1′-biphenyl-3-sulfonamide] | EC50 [1, 4]: ≤ 1 µM |
| 76 |  | O=S(=O)(Nc1ccc2ncsc2c1)c1cccc(-c2ccc(F)cc2)c1 [Compound 189, 4′-fluoro-biphenyl-3-sulfonic acid benzothiazol-6-ylamide] |  |
|  | 36 | Cc1cc(C)nc(Nc2ccc(NS(=O)(=O)c3cccc(-c4ccc(F)cc4)c3)cc2)n1 [Compound 201] | Emax at 50 µM [2]: 64% |
| 56 | 29 | Cc1nc2cc(N(C)S(=O)(=O)c3cccc(-c4ccc(F)cc4)c3)ccc2o1 [Compound 295] |  |
| 76 | 25 | Cc1nc2cc(NS(=O)(=O)c3cccc(-c4ccc(F)cc4)c3)ccc2o1 [Compound 190, 4′-fluoro-biphenyl-3-sulfonic acid (2-methyl-benzooxazol-5-yl)-amide] |  |
| 79 | 9.6 | O=S(=O)(Nc1ccc(-n2cnc(Cl)c2Cl)cc1)c1cccc(-c2ccc(F)cc2)c1 [Compound 299] |  |
|  | 7 | CN(C)c1ccc(N(C)S(=O)(=O)c2cccc(-c3ccc(F)cc3)c2)cc1 [Compound 282, 4′-fluoro-biphenyl-3-sulfonic acid (4-dimethylaminophenyl)-methylamide] | Emax at 50 µM [2]: 59% |
